# Reference: ChEMBL document CHEMBL1201862, “PubChem BioAssay data set” (2004)
#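 Grown in 96-well plates, cells were treated for 48 hours with each compound at five concentrations. Insufficient inhibition: endpoint recorded as highest concentration tested. GI50: concentration for 50% inhibition of growth.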 The source made the active and inactive calls. Cut-off read from the data, not from the text of the source: active = GI50 up to about 1.1 µM and inactive = higher.
# Assays:
# Assay in all cases: NCI-60 cell line screen, 48 h
# NCI-H460 = system: NCI-H460
# COLO 205 = system: COLO 205
# K562 = system: K562
# HL-60 = system: HL-60
# UO-31 = system: UO-31
# SN12C = system: SN12C
# T47D = system: T47D
# SW-620 = system: SW-620
# PC-3 = system: PC-3
# MDA-MB-231 = system: MDA-MB-231
# SK-MEL-28 = system: SK-MEL-28
# UACC-62 = system: UACC-62
# M14 = system: M14
# Hs-578T = system: Hs-578T
# HCT-116 = system: HCT-116
# OVCAR-4 = system: OVCAR-4
# SR = system: SR
# Malme-3M = system: Malme-3M
# U-251 = system: U-251
# SK-OV-3 = system: SK-OV-3
# MCF7 = system: MCF7
# LOX IMVI = system: LOX IMVI
# RXF 393 = system: RXF 393
# CCRF-CEM = system: CCRF-CEM
# MOLT-4 = system: MOLT-4
# SNB-75 = system: SNB-75
# SK-MEL-2 = system: SK-MEL-2
# UACC-257 = system: UACC-257
# HOP-62 = system: HOP-62
# OVCAR-8 = system: OVCAR-8
# IGROV-1 = system: IGROV-1
# SNB-19 = system: SNB-19
# HCC 2998 = system: HCC 2998
# TK-10 = system: TK-10
# DU-145 = system: DU-145
# HT-29 = system: HT-29
# MDA-N = system: MDA-N
# RPMI-8226 = system: RPMI-8226
# OVCAR-5 = system: OVCAR-5
# NCI-H23 = system: NCI-H23
# NCI/ADR-RES = system: NCI/ADR-RES
# SF-295 = system: SF-295
# NCI-H226 = system: NCI-H226
# A498 = system: A498
# SK-MEL-5 = system: SK-MEL-5
# BT-549 = system: BT-549
# OVCAR-3 = system: OVCAR-3
# KM12 = system: KM12
# MDA-MB-435 = system: MDA-MB-435
# CAKI-1 = system: CAKI-1
# HOP-92 = system: HOP-92
# HCT-15 = system: HCT-15
# ACHN = system: ACHN
# NCI-H522 = system: NCI-H522
# 786-0 = system: 786-0
# A549 = system: A549
# SF-539 = system: SF-539
# EKVX = system: EKVX
# SF-268 = system: SF-268
smiles,measurement,setting,value
CCn1c2ccccc2c2cc(NC(=O)c3c(C)[nH]c(=O)[nH]c3=S)ccc21,GI50,NCI-H460,58.3 µM (inactive)
same,GI50,COLO 205,22.9 µM (inactive)
same,GI50,K562,28.8 µM (inactive)
same,GI50,HL-60,37 µM (inactive)
same,GI50,UO-31,51.3 µM (inactive)
same,GI50,SN12C,69 µM (inactive)
same,GI50,T47D,> 100 µM (inactive)
same,GI50,SW-620,31.7 µM (inactive)
same,GI50,PC-3,31.8 µM (inactive)
same,GI50,MDA-MB-231,19.8 µM (inactive)
same,GI50,SK-MEL-28,33.3 µM (inactive)
same,GI50,UACC-62,31.9 µM (inactive)
same,GI50,M14,24.2 µM (inactive)
same,GI50,Hs-578T,50.4 µM (inactive)
same,GI50,HCT-116,43.3 µM (inactive)
same,GI50,OVCAR-4,> 100 µM (inactive)
same,GI50,SR,41 µM (inactive)
same,GI50,Malme-3M,49.4 µM (inactive)
same,GI50,U-251,31.5 µM (inactive)
same,GI50,SK-OV-3,> 100 µM (inactive)
same,GI50,MCF7,49.4 µM (inactive)
same,GI50,LOX IMVI,> 100 µM (inactive)
same,GI50,RXF 393,35.6 µM (inactive)
same,GI50,CCRF-CEM,29.2 µM (inactive)
same,GI50,MOLT-4,24.3 µM (inactive)
same,GI50,SNB-75,> 100 µM (inactive)
same,GI50,SK-MEL-2,51.3 µM (inactive)
same,GI50,UACC-257,70.3 µM (inactive)
same,GI50,HOP-62,77.8 µM (inactive)
same,GI50,OVCAR-8,> 100 µM (inactive)
same,GI50,IGROV-1,> 10 µM (inactive)
same,GI50,SNB-19,49.1 µM (inactive)
same,GI50,HCC 2998,47.6 µM (inactive)
same,GI50,TK-10,53.6 µM (inactive)
same,GI50,DU-145,42.1 µM (inactive)
same,GI50,HT-29,48.2 µM (inactive)
same,GI50,MDA-N,29.2 µM (inactive)
same,GI50,RPMI-8226,40.6 µM (inactive)
same,GI50,OVCAR-5,21.4 µM (inactive)
same,GI50,NCI-H23,38 µM (inactive)
same,GI50,NCI/ADR-RES,> 100 µM (inactive)
same,GI50,SF-295,61.4 µM (inactive)
same,GI50,NCI-H226,33 µM (inactive)
same,GI50,A498,> 100 µM (inactive)
same,GI50,SK-MEL-5,42.1 µM (inactive)
same,GI50,BT-549,31 µM (inactive)
same,GI50,OVCAR-3,35.7 µM (inactive)
same,GI50,KM12,18.5 µM (inactive)
same,GI50,MDA-MB-435,22.6 µM (inactive)
same,GI50,CAKI-1,> 100 µM (inactive)
same,GI50,HOP-92,> 100 µM (inactive)
same,GI50,HCT-15,41.2 µM
CC(=O)N1C(Nc2cccc3nc(C)ccc23)CCN1c1ccccc1 (stereo unspecified),GI50,NCI-H460,> 10 µM (inactive)
same,GI50,ACHN,> 10 µM (inactive)
same,GI50,COLO 205,> 10 µM (inactive)
same,GI50,K562,> 10 µM (inactive)
same,GI50,HL-60,8.2 µM (inactive)
same,GI50,UO-31,> 10 µM (inactive)
same,GI50,SN12C,> 10 µM (inactive)
same,GI50,T47D,> 10 µM (inactive)
same,GI50,SW-620,5.73 µM (inactive)
same,GI50,PC-3,> 10 µM (inactive)
same,GI50,MDA-MB-231,> 10 µM (inactive)
same,GI50,NCI-H522,> 10 µM (inactive)
same,GI50,SK-MEL-28,> 10 µM (inactive)
same,GI50,M14,> 10 µM (inactive)
same,GI50,Hs-578T,> 10 µM (inactive)
same,GI50,HCT-116,> 10 µM (inactive)
same,GI50,OVCAR-4,> 10 µM (inactive)
same,GI50,SR,7.19 µM (inactive)
same,GI50,786-0,> 10 µM (inactive)
same,GI50,Malme-3M,> 10 µM (inactive)
same,GI50,SK-OV-3,> 10 µM (inactive)
same,GI50,MCF7,> 10 µM (inactive)
same,GI50,LOX IMVI,> 10 µM (inactive)
same,GI50,RXF 393,> 10 µM (inactive)
same,GI50,A549,> 10 µM (inactive)
same,GI50,SF-539,> 10 µM (inactive)
same,GI50,CCRF-CEM,> 10 µM (inactive)
same,GI50,MOLT-4,> 10 µM (inactive)
same,GI50,SNB-75,> 10 µM (inactive)
same,GI50,SK-MEL-2,> 10 µM (inactive)
same,GI50,UACC-257,> 10 µM (inactive)
same,GI50,HOP-62,> 10 µM (inactive)
same,GI50,OVCAR-8,> 10 µM (inactive)
same,GI50,IGROV-1,> 10 µM (inactive)
same,GI50,SNB-19,> 10 µM (inactive)
same,GI50,HCC 2998,> 10 µM (inactive)
same,GI50,TK-10,> 10 µM (inactive)
same,GI50,DU-145,> 10 µM (inactive)
same,GI50,HT-29,> 10 µM (inactive)
same,GI50,MDA-N,> 10 µM (inactive)
same,GI50,RPMI-8226,> 10 µM (inactive)
same,GI50,OVCAR-5,> 10 µM (inactive)
same,GI50,NCI-H23,> 10 µM (inactive)
same,GI50,NCI/ADR-RES,> 10 µM (inactive)
same,GI50,EKVX,> 10 µM (inactive)
same,GI50,SF-295,> 10 µM (inactive)
same,GI50,NCI-H226,> 10 µM (inactive)
same,GI50,SK-MEL-5,> 10 µM (inactive)
same,GI50,BT-549,> 10 µM (inactive)
same,GI50,OVCAR-3,> 10 µM (inactive)
same,GI50,SF-268,> 10 µM (inactive)
same,GI50,MDA-MB-435,> 10 µM (inactive)
same,GI50,CAKI-1,> 10 µM (inactive)
same,GI50,HCT-15,7.98 µM
COc1cc2ccnc3c2c(c1OC)N(C)C=C3,GI50,NCI-H460,14.6 µM (inactive)
same,GI50,ACHN,16.1 µM (inactive)
same,GI50,COLO 205,20.5 µM (inactive)
same,GI50,K562,21.1 µM (inactive)
same,GI50,UO-31,14.2 µM (inactive)
same,GI50,SN12C,30.4 µM (inactive)
same,GI50,T47D,32.3 µM (inactive)
same,GI50,SW-620,29.6 µM (inactive)
same,GI50,PC-3,31.9 µM (inactive)
same,GI50,MDA-MB-231,29.1 µM (inactive)
same,GI50,SK-MEL-28,32.7 µM (inactive)
same,GI50,UACC-62,26.4 µM (inactive)
same,GI50,M14,26.3 µM (inactive)
same,GI50,Hs-578T,29.3 µM (inactive)
same,GI50,HCT-116,11 µM (inactive)
same,GI50,OVCAR-4,24.5 µM (inactive)
same,GI50,SR,21.3 µM (inactive)
same,GI50,786-0,17.2 µM (inactive)
same,GI50,U-251,35.2 µM (inactive)
same,GI50,SK-OV-3,16.5 µM (inactive)
same,GI50,MCF7,16.6 µM (inactive)
same,GI50,LOX IMVI,21.5 µM (inactive)
same,GI50,RXF 393,25.1 µM (inactive)
same,GI50,A549,17.7 µM (inactive)
same,GI50,MOLT-4,30 µM (inactive)
same,GI50,SNB-75,33.6 µM (inactive)
same,GI50,SK-MEL-2,23.1 µM (inactive)
same,GI50,UACC-257,34.4 µM (inactive)
same,GI50,HOP-62,28.3 µM (inactive)
same,GI50,OVCAR-8,26.5 µM (inactive)
same,GI50,SNB-19,25.2 µM (inactive)
same,GI50,HCC 2998,16.4 µM (inactive)
same,GI50,TK-10,35.3 µM (inactive)
same,GI50,DU-145,34.5 µM (inactive)
same,GI50,MDA-N,19.1 µM (inactive)
same,GI50,RPMI-8226,24.4 µM (inactive)
same,GI50,OVCAR-5,33 µM (inactive)
same,GI50,NCI-H23,19.4 µM (inactive)
same,GI50,NCI/ADR-RES,24.3 µM (inactive)
same,GI50,EKVX,23.2 µM (inactive)
same,GI50,SF-295,20.2 µM (inactive)
same,GI50,NCI-H226,21.2 µM (inactive)
same,GI50,A498,36.1 µM (inactive)
same,GI50,BT-549,33 µM (inactive)
same,GI50,OVCAR-3,29.4 µM (inactive)
same,GI50,KM12,25.9 µM (inactive)
same,GI50,SF-268,35.2 µM (inactive)
same,GI50,MDA-MB-435,31.5 µM (inactive)
same,GI50,CAKI-1,21.3 µM (inactive)
same,GI50,HCT-15,26.9 µM
